Where two headings read alike, the source gives them in different places.
What was measured:
Format in all cases: biochemical
[1] = target: T1, aminopeptidase N (APN) (Homo sapiens, UniProt P15144); experiment: Aminopeptidase N (APN) enzyme activity assay with L-p-NA substrate; conditions: for inhibition of APN in in vitro enzyme assay: at the highest concentration; for enzymatic activity of APN: treatment with 10 mM, without sample 0.38 U
T1 construct: purchased Sigma-Aldrich
Protocol: Figure 2 Effects of AAE and AAE-derived compounds on APN activity. […] The reaction was started by adding 20 μL enzyme solution (1 mU) and incubated for 60 min at 37 °C. The absorbance of samples were measured at 405 nm to determine the formation of p-nitroaniline. Each value is the mean ± SD of triplicate measurements. * p < 0.05 and ** p < 0.01, compared to each control group (Con). Con, control group treated enzyme only.
The activity of APN was determined according to Melzig et al.. Briefly, the enzyme substrate L-p-NA (2 mM) was dissolved in 50 mM N-(2-hydroxyethyl)piperazine-N’-2ethansulfonic acid (HEPES) buffer (pH 7.4) containing 154 mM NaCl. […] The reaction was started by adding 20 μL enzyme solution (approximately 1 mU in HEPES-buffer) and incubated for 60 min at 37 °C. The samples were measured spectrophotometrically at 405 nm to determine the formation of p-nitroanilmne. APN inhibitory activity (%) = ([Absorbance control without sample − Absorbance control with sample]/Absorbance control without sample) × 100

[2] = target: PDE5 (Homo sapiens, UniProt O76074); experiment: Kinetic assay (Lineweaver–Burk) on PDE5;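 on Kcat: pure compound doses in mM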; set-up: Vmax / Kcat: unit of the concentration uncertain; conditions: for Kik/Kiv / Ki: PDE5; for Kik/Kiv: ratio according to Yang et al. [27]; for inhibition type against PDE5: from changes of Km and 1/Vmax (Lineweaver–Burk), putative decision system [27]; for Vmax value of PDE5, fold of non-treated group: highest concentration, non-treated 1.039 mU/min = 1.0-fold
Protocol: Lineweaver–Burk plots were employed to analyze the inhibition of the target enzyme. These plots were represented as 1/velocity (1/V) versus 1/substrate concentration (1/[S]) in the presence or absence of each sample (non-treated (black circle), 10 μg or 1 mM (orange circle), 20 μg or 2 mM (silver circle), 50 μg or 5 mM (yellow circle), and 100 μg or 10 mM (blue circle)) as an inhibitor against PDE5.
(§1) These reactions were conducted in a total volume of 80 μL. by a previously described method. The Michaelis–Menten constant (Km) and maximal velocity (Vmax) were calculated using the x and y intercepts, respectively. […] Additionally, the Kik and Kiv inhibition constants were calculated using previously described methods.

[3] = target: T2, APN (Homo sapiens, UniProt P15144); experiment: Kinetic assay (Lineweaver–Burk) on APN; conditions: for inhibition type against APN: from Kik/Kiv ratio, new decision system [27]; for Vmax value of APN, fold of non-treated group: non-treated 0.316 mU/min = 1.0-fold
T2 construct: purchased Sigma-Aldrich
T2 sequence (P15144 whole entry, species assumed): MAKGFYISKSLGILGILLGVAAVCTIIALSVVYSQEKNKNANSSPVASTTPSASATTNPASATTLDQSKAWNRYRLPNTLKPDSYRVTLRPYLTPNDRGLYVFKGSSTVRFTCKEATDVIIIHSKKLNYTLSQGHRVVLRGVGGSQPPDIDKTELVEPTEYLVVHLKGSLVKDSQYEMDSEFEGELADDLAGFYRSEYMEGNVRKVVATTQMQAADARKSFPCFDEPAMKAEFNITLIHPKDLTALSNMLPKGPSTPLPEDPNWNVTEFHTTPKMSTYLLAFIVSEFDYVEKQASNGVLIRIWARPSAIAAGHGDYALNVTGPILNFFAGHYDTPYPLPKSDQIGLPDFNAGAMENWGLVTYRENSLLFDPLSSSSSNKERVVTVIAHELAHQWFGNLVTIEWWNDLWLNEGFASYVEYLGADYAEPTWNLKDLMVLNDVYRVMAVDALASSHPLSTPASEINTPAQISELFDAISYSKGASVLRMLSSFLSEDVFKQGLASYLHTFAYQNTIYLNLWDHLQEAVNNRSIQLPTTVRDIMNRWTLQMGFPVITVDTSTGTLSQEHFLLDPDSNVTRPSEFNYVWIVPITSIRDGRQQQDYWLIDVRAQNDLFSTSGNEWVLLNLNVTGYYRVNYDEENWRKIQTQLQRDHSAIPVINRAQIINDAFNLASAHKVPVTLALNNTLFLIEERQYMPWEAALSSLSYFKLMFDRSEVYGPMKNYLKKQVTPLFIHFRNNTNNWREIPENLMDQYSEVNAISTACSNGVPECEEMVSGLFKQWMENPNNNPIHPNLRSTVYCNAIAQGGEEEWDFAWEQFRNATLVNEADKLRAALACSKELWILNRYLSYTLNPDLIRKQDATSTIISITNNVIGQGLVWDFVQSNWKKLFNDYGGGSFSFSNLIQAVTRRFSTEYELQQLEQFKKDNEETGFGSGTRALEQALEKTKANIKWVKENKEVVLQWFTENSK
Protocol: Lineweaver–Burk plots were employed to analyze the inhibition of the target enzyme. These plots were represented as 1/velocity (1/V) versus 1/substrate concentration (1/(S)) in the presence or absence of each sample (non-treated (black circle), 10 μg or 1 mM (blue circle), 20 μg or 2 mM (green circle), 50 μg or 5 mM (orange circle), and 100 μg or 10 mM (purple circle)) as an inhibitor against APN.
as §1

[4] = target: cGMP-specific PDE V (PDE5) (Homo sapiens, UniProt O76074); experiment: cGMP-specific PDE V (PDE5) enzyme activity assay with p-NPPPh substrate; conditions: for inhibition rate of PDE5: at the highest concentration (in vitro enzyme assay); for reduction of PDE5 enzymatic activity: range over 1, 2, 5, and 10 mM
Protocol: Following the addition of 10 mM p-NPPPh, the reaction mixture was incubated at 37 °C for 10 min. After the incubation period, the concentration of liberated 4-nitrophenol was determined by measuring its absorbance values at a wavelength of 405 nm using a microplate reader. […] Con, control group treated enzyme only.
The specific substrate used for PDE5 was p-NPPPh, following a previously described method. The enzyme solution was prepared by adding 1 U of PDE5 to a volume of 10 μL in 40 mM Tris-HCl buffer at pH 7.4. The substrate solution (10 mM) was prepared by dissolving the substrate in Tris-HCl buffer at pH 7.4. […] Following the pretreatment, the reaction was initiated and allowed to continue for an additional 10 min at 37 °C upon the addition of 10 mM p-NPPPh in a total reaction volume of 80 μL. Following the incubation period, the absorbance of the mixture was measured at 405 nm using a microplate reader. The enzyme activity was quantified in units, where one unit corresponds to the amount of enzyme needed to hydrolyze 1 micromol of p-NPPPh. The inhibitory activity of PDE5 (%) was calculated by determining the residual activity (U). PDE5 inhibitory activity (%) = ([Residual unit control without sample − Residual unit control with sample]/Residual unit control without sample) × 100

[5] = PDE5 treated with compound 1 (unit uncertain)
[6] = PDE5 treated with compound 2 (unit uncertain)
[7] = PDE5 treated with compound 5 (unit uncertain)
[8] = PDE5 treated with compound 10 (unit uncertain)
[9] = APN treated with compound 10 mM
[10] = APN, calculated by method of ref 27, read-out: Kik
[11] = APN, calculated by method of ref 27, read-out: Kiv

T1 sequence (P15144 whole entry, species assumed): as above

SMILES | inhibition of APN in in vitro enzyme assay [1] [%] | enzymatic activity of APN [1] [U] | Kcat [2, 5] [k s^−1] | Vmax [2, 5] [mU/min] | Kcat [2, 6] [k s^−1] | Vmax [2, 6] [mU/min] | Kcat [2, 7] [k s^−1] | Vmax [2, 7] [mU/min] | Kcat [2, 8] [k s^−1] | Vmax [2, 8] [mU/min] | inhibition type against PDE5 [2] | Kcat ([3]; APN treated with compound 1 mM) [s⁻¹] | Vmax ([3]; APN treated with compound 1 mM) [mU/min] | Kcat ([3]; APN treated with compound 2 mM) [s⁻¹] | Vmax ([3]; APN treated with compound 2 mM) [mU/min] | Kcat ([3]; APN treated with compound 5 mM) [s⁻¹] | Vmax ([3]; APN treated with compound 5 mM) [mU/min] | Kcat [3, 9] [s⁻¹] | Vmax [3, 9] [mU/min] | Ki ([3]; APN, read-out: Ki) [mM] | also measured
C=CCSSCC=C [DADS, diallyl disulfide] | 11 | 0.34 ± 0.02 | 7253 ± 189 | 0.959 ± 0.025 | 6625 ± 159 | 0.876 ± 0.021 | 5905 ± 83 | 0.781 ± 0.011 | 4383 ± 76 | 0.580 ± 0.010 | noncompetitive-type | 394.8 ± 3.7 | 0.318 ± 0.003 | 379.5 ± 7.4 | 0.306 ± 0.006 | 368.8 ± 6.2 | 0.297 ± 0.005 | 364.9 ± 5.0 | 0.294 ± 0.004 | 65.7 | IC50 [1]: > 10 mM; Kik/Kiv [2]: 16.0; Vmax value of PDE5, fold of non-treated group [2]: 0.56 fold; inhibition type against APN [3]: uncompetitive-type; Vmax value of APN, fold of non-treated group ([3]; highest concentration): 0.93 fold
C=CCSSSCC=C [DATS, diallyl trisulfide] | 19 | 0.31 ± 0.02 | 7105 ± 197 | 0.940 ± 0.026 | 6757 ± 242 | 0.894 ± 0.032 | 4955 ± 174 | 0.655 ± 0.023 | 3371 ± 144 | 0.446 ± 0.019 | noncompetitive-type | 368.9 ± 7.4 | 0.297 ± 0.006 | 365.3 ± 6.2 | 0.294 ± 0.005 | 309.2 ± 5.0 | 0.249 ± 0.004 | 285.9 ± 5.0 | 0.230 ± 0.004 | 18.7 | IC50 [4]: 9.49 mM; inhibition rate of PDE5 [4]: 52%; reduction of PDE5 enzymatic activity [4]: 8.34–51.75%; Ki [2]: 7.53 mM; Kik/Kiv [2]: 17.8; Vmax value of PDE5, fold of non-treated group [2]: 0.43 fold; Ki [3, 10]: 68.5 mM; Ki [3, 11]: 26.9 mM; Kik/Kiv ([3]; APN, ratio according to Yang et al. [27]): 2.5; inhibition type against APN [3]: mixed-type; Km value of APN, fold of non-treated ([3]; highest concentration): 1.15 fold; Vmax value of APN, fold of non-treated group ([3]; highest concentration): 0.73 fold
C/C=C/[S@+]([O-])C[C@H](N)C(=O)O [IA, isoalliin] | 26 | 0.28 ± 0.01 | 6587 ± 159 | 0.871 ± 0.021 | 5489 ± 151 | 0.726 ± 0.020 | 4387 ± 129 | 0.580 ± 0.017 | 4018 ± 114 | 0.531 ± 0.015 | noncompetitive-type | 381.3 ± 6.2 | 0.307 ± 0.005 | 331.6 ± 7.4 | 0.267 ± 0.006 | 298.9 ± 4.9 | 0.241 ± 0.004 | 275.8 ± 3.7 | 0.222 ± 0.003 | 33.1 | IC50 [4]: 8.42 mM; inhibition rate of PDE5 [4]: 51%; reduction of PDE5 enzymatic activity [4]: 17.23–51.41%; Ki [2]: 10.8 mM; Kik/Kiv [2]: 13.0; Vmax value of PDE5, fold of non-treated group [2]: 0.51 fold; Ki [3, 11]: 23.7 mM; inhibition type against APN [3]: mixed-type; Vmax value of APN, fold of non-treated group ([3]; highest concentration): 0.70 fold
O=c1c(O)c(-c2ccc(O)cc2)oc2cc(O)cc(O)c12 [KAE, kaempferol] | 29 | 0.27 ± 0.01 | 5076 ± 98 | 0.671 ± 0.013 | 4591 ± 76 | 0.607 ± 0.010 | 2390 ± 121 | 0.316 ± 0.016 | 1228 ± 69 | 0.162 ± 0.009 | uncompetitive-type | 396.3 ± 7.5 | 0.319 ± 0.006 | 352.8 ± 7.4 | 0.284 ± 0.006 | 308.0 ± 5.0 | 0.248 ± 0.004 | 268.5 ± 3.7 | 0.216 ± 0.003 | 11.9 | IC50 [1]: > 10 mM; Ki [3, 10]: 42.1 mM; Ki [3, 11]: 21.7 mM; inhibition type against APN [3]: uncompetitive-type

From PMC10488055, “Investigation of Potential cGMP-Specific PDE V and Aminopeptidase N Inhibitors of Allium ampeloprasum L. and Its Bioactive Components: Kinetic and Molecular Docking Studies” (International Journal of Molecular Sciences, 2023)
